Patent publication US10610522B2, “Methods for retreating irritable bowel syndrome (IBS)” (Salix Pharmaceuticals, Inc., priority 2014, dated 2020)
Where two headings read alike, the source gives them in different places.

Key:
[1] = Rifaximin systemic exposure/pharmacokinetics in healthy subjects, IBS subjects and liver impaired subjects; assay type: in vivo, human; details: for AUC / Cmax / half-life / Tmax / AUC(0-inf): human, plasma; for Tmax: read-out: Tmax, Median (range); for AUC(0-inf): po, single 550 mg oral dose, read-out: Mean AUC0-∞
Description: Subjects with non-c-IBS had mean AUCtau values following a single dose and multiple TID doses of 9.69 ng·h/mL and 16.0 ng·h/mL, respectively, reflecting an accumulation ratio (Rc; multiple-dose AUCtau/single-dose AUCtau) of […]. In subjects with liver impairment, systemic exposure is higher than that observed in healthy subjects or subjects with non-constipation irritable bowel syndrome, but low nonetheless.
Pharmacokinetic parameters were measured after a single dose and multiple doses (14 days).

IBS-D = experiment: Adverse reactions in three phase 3 placebo-controlled IBS-D studies, rifaximin 550 mg TID; assay type: in vivo, human
From the text: In two studies, 624 patients received only one 14-day treatment.
(These include adverse reactions that may be attributable to the underlying disease.)
The following includes adverse reactions regardless of causal relationship to drug exposure. Gastrointestinal Disorders: Abdominal distension, abdominal tenderness, constipation, diarrhea, dyspepsia, flatulence, vomiting

IBS = details: cited from earlier work
[2] = 1650 mg/day, N = 952, three phase 3 placebo-controlled studies
[3] = Pimentel, et al., responders/retreated
[4] = Yang, et al, responders/retreated

Question: For `CO[C@H]1/C=C/O[C@@]2(C)Oc3c(C)c(O)c4c(O)c(c5c(nc6cc(C)ccn65)c4c3C2=O)NC(=O)/C(C)=C\C=C\[C@H](C)[C@H](O)[C@@H](C)[C@@H](O)[C@@H](C)[C@H](OC(C)=O)[C@@H]1C` [Rifaximin, (2S,16Z,18E,20S,21S,22R,23R,24R,25S,26S,27S,28E)-5,6,21,23,25 Pentahydroxy-27-methoxy-2,4,11,16,20,22,24,26-octamethyl-2,7-(epoxypentadeca-(1,11,13)trienimino) benzofuro (4,5-e) pyrido(1,2-a) benzimidazole-1,15(2H)-dione,25-acetate], which AUC ([1]; 550 mg, 550 mg BID repeat dosing, Child Pugh B, read-out: Mean steady-state AUCtau) is on record?
Answer: 0.161 µg·h/mL

Question: What about the AUC ([1]; 550 mg, 550 mg BID repeat dosing, Child-Pugh A, read-out: Mean steady-state AUCtau) of the same compound?
Answer: 0.118 µg·h/mL

Question: And the AUC ([1]; 550 mg, 550 mg BID repeat dosing, Child-Pugh C, read-out: Mean steady-state AUCtau)?
Answer: 0.246 µg·h/mL

Question: What about the AUC ([1]; 550 mg, multiple-dose TID, healthy subjects, read-out: Mean AUCtau, steady-state) of the same compound?
Answer: 0.0093 µg·h/mL

Question: And the AUC ([1]; 550 mg, subjects with non-c-IBS, multiple TID doses, read-out: Mean AUCtau)?
Answer: 0.016 µg·h/mL

Question: And the AUC ([1]; 550 mg, subjects with non-c-IBS, single dose, read-out: Mean AUCtau)?
Answer: 0.00969 µg·h/mL

Question: And the AUC ([1]; multiple-dose BID, healthy subjects, read-out: Mean AUCtau, steady-state)?
Answer: 0.0123 µg·h/mL

Question: And the AUC ([1]; oral, 550 mg, 550 mg BID, Child-Pugh C, read-out: Mean steady-state AUCtau)?
Answer: 0.257 µg·h/mL

Question: What about the Cmax ([1]; oral, 550 mg, 550 mg BID, Child-Pugh C, read-out: Mean steady-state Cmax) of the same compound?
Answer: 39.7 ng/mL

Question: And the half-life ([1]; oral, 550 mg, Child-Pugh C subjects, read-out: Mean half-life (converted))?
Answer: 6.35 h

Question: And the AUC ([1]; oral, 550 mg, Healthy Subjects, 550 mg Multiple-Dose TID (Day 14), N = 14, read-out: AUCtau, mean (SD))?
Answer: 0.0093 µg·h/mL

Question: And the Cmax ([1]; oral, 550 mg, Healthy Subjects, 550 mg Multiple-Dose TID (Day 14), N = 14, read-out: Cmax, mean (SD))?
Answer: 2.39 ng/mL

Question: And the half-life ([1]; oral, 550 mg, Healthy Subjects, 550 mg Multiple-Dose TID (Day 14), N = 14, read-out: Half-life, harmonic mean (pseudo SD) (converted))?
Answer: 5.63 h

Question: And the Tmax ([1]; oral, 550 mg, Healthy Subjects, 550 mg Multiple-Dose TID (Day 14), N = 14)?
Answer: 1 h

Question: What about the AUC ([1]; oral, 550 mg, Healthy Subjects, 550 mg Single-Dose (Day 1), N = 12, read-out: AUCtau, mean (SD)) of the same compound?
Answer: 0.0104 µg·h/mL

Question: And the Cmax ([1]; oral, 550 mg, Healthy Subjects, 550 mg Single-Dose (Day 1), N = 12, read-out: Cmax, mean (SD))?
Answer: 4.04 ng/mL

Question: And the half-life ([1]; oral, 550 mg, Healthy Subjects, 550 mg Single-Dose (Day 1), N = 12, read-out: Half-life, harmonic mean (pseudo SD) (converted))?
Answer: 1.83 h

Question: And the Tmax ([1]; oral, 550 mg, Healthy Subjects, 550 mg Single-Dose (Day 1), N = 12)?
Answer: 0.75 h

Question: And the AUC ([1]; oral, 550 mg, IBS-D Patients, 550 mg Multiple-Dose TID (Day 14), N = 24, read-out: AUCtau, mean (SD))?
Answer: 0.016 µg·h/mL

Question: What about the Cmax ([1]; oral, 550 mg, IBS-D Patients, 550 mg Multiple-Dose TID (Day 14), N = 24, read-out: Cmax, mean (SD)) of the same compound?
Answer: 4.22 ng/mL

Question: And the half-life ([1]; oral, 550 mg, IBS-D Patients, 550 mg Multiple-Dose TID (Day 14), N = 24, read-out: Half-life, harmonic mean (pseudo SD) (converted))?
Answer: 6.08 h

Question: And the Tmax ([1]; oral, 550 mg, IBS-D Patients, 550 mg Multiple-Dose TID (Day 14), N = 24)?
Answer: 1 h

Question: And the AUC ([1]; oral, 550 mg, IBS-D Patients, 550 mg Single-Dose (Day 1), N = 24, read-out: AUCtau, mean (SD))?
Answer: 0.00969 µg·h/mL

Question: What about the Cmax ([1]; oral, 550 mg, IBS-D Patients, 550 mg Single-Dose (Day 1), N = 24, read-out: Cmax, mean (SD)) of the same compound?
Answer: 3.49 ng/mL

Question: What about the half-life ([1]; oral, 550 mg, IBS-D Patients, 550 mg Single-Dose (Day 1), N = 24, read-out: Half-life, harmonic mean (pseudo SD) (converted)) of the same compound?
Answer: 3.14 h

Question: And the Tmax ([1]; oral, 550 mg, IBS-D Patients, 550 mg Single-Dose (Day 1), N = 24)?
Answer: 0.775 h

Question: And the Cmax ([1]; oral, 550 mg, single 550-mg dose, fasted healthy subjects, read-out: Cmax)?
Answer: 4.1 ng/mL

Question: What about the AUC(0-inf) ([1]; 550 mg, fasted healthy subjects) of the same compound?
Answer: 0.0111 µg·h/mL

Question: And the AUC(0-inf) ([1]; 550 mg, fed healthy subjects)?
Answer: 0.0225 µg·h/mL

Question: What about the Systemic absorption ([1]; regardless of food intake or presence of GI disease) of the same compound?
Answer: < 0.4%

Question: What about the “Most common adverse reactions in IBS-D (≥2%)” value (IBS-D; 550 mg TID) of the same compound?
Answer: nausea and abdominal pain

Question: What about the “Adverse reaction Abdominal Pain: % of Patients” value (IBS-D; [2]) of the same compound?
Answer: 2%

Question: And the “Adverse reaction Abdominal Pain: Number of Patients” value (IBS-D; [2])?
Answer: 18

Question: What about the “Adverse reaction Nausea: % of Patients” value (IBS-D; [2]) of the same compound?
Answer: 2%

Question: And the “Adverse reaction Nausea: Number of Patients” value (IBS-D; [2])?
Answer: 22

Question: And the Initial treatment response (IBS; Jolley (~1 yr), IBS-D patients, 1200 mg/day for 10 days)?
Answer: 56% (25/45)

Question: What about the “Re-treatment response (at least 1)” value (IBS; Jolley, IBS-D patients, 2400 mg/day for 10 days) of the same compound?
Answer: (at least 1): 54% (13/24)

Question: And the “Complete (>90%) relief” value (IBS; Jolley, IBS-D patients)?
Answer: 11% (5/45)

Question: What about the “Complete (>90%) relief upon re-treatment” value (IBS; Jolley, IBS-D patients) of the same compound?
Answer: 13% (3/24)

Question: And the Initial treatment response (IBS; Pimentel, et al. (>6 yr), 169 Non-C IBS patients (Rome III), 400-550 mg TID for 14 days)?
Answer: 75% (111/148)

Question: And the “Re-treatment response (at least 1)” value (IBS; Pimentel, et al., 1 to 6 re-treatments)?
Answer: (at least 1): >75%

Question: And the Duration of benefit (IBS; Pimentel, et al.)?
Answer: ~4 m

Question: And the “Re-treatment response, First” value (IBS; [3])?
Answer: 54/65

Question: And the “Re-treatment response, Second” value (IBS; [3])?
Answer: 38/40

Question: What about the “Re-treatment response, Third” value (IBS; [3]) of the same compound?
Answer: Third: 17/18

Question: And the Initial treatment response (IBS; Weinstock (>6 yr), 99 Non-C IBS patients (Rome II), 1200-1650 mg/day for 10 days)?
Answer: 75% (74/99)

Question: What about the “Patients who did not require re-treatment” value (IBS; Weinstock) of the same compound?
Answer: 27% did not require

Question: What about the “Patients who maintained response for mean 1.6 y” value (IBS; Weinstock) of the same compound?
Answer: 41% maintained response

Question: And the “Patients with only 1-2 retreatment in 2 y” value (IBS; Weinstock)?
Answer: 51% only 1-2 retreatment

Question: What about the Initial treatment response (IBS; Yang, et al (1.25 yr), 84 IBS patients (Rome I), 1200 mg/day for 10 days) of the same compound?
Answer: 69% (58/84)

Question: What about the “Re-treatment response (at least 1)” value (IBS; Yang, et al, 1200 mg/day for 10 days) of the same compound?
Answer: (at least 1): 100%

Question: And the “Re-treatment response, First” value (IBS; [4])?
Answer: 16/16

Question: What about the “Re-treatment response, Second” value (IBS; [4]) of the same compound?
Answer: 4/4
